For 14 molecules, EC50 results are on record in patent publication US11013726B2 (Arbutus Biopharma Corporation, priority 2016, dated 2021).

For this assay, the system named is HBsAg. The assay can be described thus: HBsAg assay. The class given is cell-based, hepatitis B virus. The settings on record: Hepatitis B virus, HepG2.2.15, 144 h, read-out: sAg EC50, μM, HepG2.2.15 cells, day 6. In a few lines:
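HepG2.2.15 cells were treated with serially diluted compounds (0.5% DMSO), with medium and compound renewed after 2-3 days. Secreted HBsAg measured at day 6 by chemiluminescence immunoassay; EC50 from dose-response curves. Viability assessed in parallel by CellTiter-Glo.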
One may read the EC50 as the concentration needed to bring the measured effect to its halfway point. Consider `CCc1cc2c(cc1OCC(C)C)OC[C@@H](C(C)C)n1cc(C(=O)O)c(=O)cc1-2` [Example 52, (R)-2-Ethyl-3-isobutoxy-7-isopropyl-11-oxo-6,7-dihydro-11H-benzo[f]pyrido[1,2-d][1,4]oxazepine-10-carboxylic acid], for which the concentration for a half-maximal effect (EC50) is 0.007 µM.

Turning to `COCCCOc1cc2c(cc1OC)-c1cc(=NOC)c(C(=O)O)cn1C(C(C)C)C2` (centres unmarked) [Example 149], the EC50 was determined as 7.4 µM.

As for `COCCCOc1cc2c(cc1Cl)-c1cc(=O)c(Nc3ncccn3)cn1C(C(C)(C)C)C2` (centres unmarked) [Example 129, 6-(Tert-butyl)-10-chloro-9-(3-methoxypropoxy)-3-(pyrimidin-2-ylamino)-6,7-dihydro-2H-pyrido[2,1-a]isoquinolin-2-one], the EC50 is 5.9 µM.

As for `COCCOC1COc2cc3c(cc2OC1)-c1cc(=O)c(C(=O)O)cn1C(C(C)(C)C)C3` (centres unmarked) [Example 97, 6-(Tert-butyl)-11-(2-methoxyethoxy)-2-oxo-6,7,11,12-tetrahydro-2H,10H-[1,4]dioxepino[2,3-g]pyrido[2,1-a]isoquinoline-3-carboxylic acid], the EC50 was determined as 1.4 µM.

Consider `COCCOc1cc2c(cc1Cl)-c1cc(=O)c(C(=O)O)cn1C(C(C)C)CO2` (centres unmarked) [Example 29, 2-Chloro-7-isopropyl-3-(2-methoxyethoxy)-11-oxo-6,7-dihydro-11H-benzo[f]pyrido[1,2-d][1,4]oxazepine-10-carboxylic acid], for which the concentration for a half-maximal effect (EC50) worked out at 0.065 µM.

Consider `CC(C)[C@@H]1COc2cc(OCC(C)(C)CO)c(Cl)cc2-c2cc(=O)c(C(=O)O)cn21` [Example 37, (R)-2-Chloro-3-(3-hydroxy-2,2-dimethylpropoxy)-7-isopropyl-11-oxo-6,7-dihydro-11H-benzo[f]pyrido[1,2-d][1,4]oxazepine-10-carboxylic acid], for which the EC50 is 0.012 µM.

`COCCCOc1cc2c(cc1Cl)-c1cc(=O)c(-c3ccccn3)cn1[C@H](C(C)C)CO2` [Example 138, (R)-2-Chloro-7-isopropyl-3-(3-methoxypropoxy)-10-(pyridin-2-yl)-6,7-dihydro-11H-benzo[f]pyrido[1,2-d][1,4]oxazepin-11-one]: the EC50 amounted to 12 µM.

In the case of `CC(C)[C@@H]1COc2cc(OCc3ccccc3)c(Cl)nc2-c2cc(=O)c(C(=O)O)cn21` [Example 77, (R)-3-(Benzyloxy)-2-chloro-7-isopropyl-11-oxo-6,7-dihydro-11H-dipyrido[1,2-d:2′,3′-f][1,4]oxazepine-10-carboxylic acid], the EC50 is 3.2 µM.

With `COc1ccc2c(n1)-c1cc(=O)c(C(=O)O)cn1[C@@H]2C(C)C` [Example 172, (R)-5-Isopropyl-2-methoxy-9-oxo-5,9-dihydropyrido[2,3-a]indolizine-8-carboxylic acid], the EC50 amounted to 0.82 µM.

For the molecule `COCCNc1cc2c(cc1Cl)-c1cc(=O)c(C(=O)O)cn1[C@H](C(C)C)CO2` [Example 64, (R)-2-Chloro-7-isopropyl-3-((2-methoxyethyl)amino)-11-oxo-6,7-dihydro-11H-benzo[f]pyrido[1,2-d][1,4]oxazepine-10-carboxylic acid], the EC50 worked out at 0.066 µM.

For the molecule `COCCCOc1cc2c(cc1Cl)-c1cc(=O)c(C(=O)O)cn1C(C(C)C)CO2` (centres unmarked) [Example 33, 2-Chloro-7-isopropyl-3-(3-methoxypropoxy)-11-oxo-6,7-dihydro-11H-benzo[f]pyrido[1,2-d][1,4]oxazepine-10-carboxylic acid], the EC50 is 0.029 µM.

For the molecule `COCCCOc1cc2c(cc1Cl)-c1cc(=NO)c(C(=O)OC)cn1C(C(C)(C)C)C2` (centres unmarked) [Example 144, Methyl 6-tert-butyl-10-chloro-2-(hydroxyimino)-9-(3-methoxypropoxy)-6H,7H-pyrido[2,1-a]isoquinoline-3-carboxylate], the EC50 turned out to be 0.17 µM.

In the case of `COc1cc2c(cc1Cl)-c1cc(=O)c(C(=O)O)cn1[C@@H](C(C)C)CO2` (single isomer, unassigned) [Example 4], the EC50 came to 3.4 µM.

On to `COc1nc2c(s1)CC(C(C)C)n1cc(C(=O)O)c(=O)cc1-2` (centres unmarked) [Example 87, 5-Isopropyl-2-methoxy-9-oxo-4,9-dihydro-5H-thiazolo[4,5-a]quinolizine-8-carboxylic acid], for which the EC50 was found to be 3.8 µM.
